Test results from patent publication US6750322B2, “Guanosine triphosphate (GTP) binding protein-coupled receptor proteins” (Banyu Pharmaceutical Co., Ltd., priority 1998, dated 2004).

Experiments:
rat BG2-2 [1] = biological target: T1, rat BG2-2 (Rattus norvegicus, UniProt Q9QYN8); test: N-α-methylhistamine binding experiment on membrane fraction of COS7 cells expressing rat BG2-2; set-up: Vectors expressing each BG2 receptor were prepared using pEF1x; expressed in transfected cells; host or cells: COS7 cells (membrane fraction)
T1 sequence (Q9QYN8 whole entry): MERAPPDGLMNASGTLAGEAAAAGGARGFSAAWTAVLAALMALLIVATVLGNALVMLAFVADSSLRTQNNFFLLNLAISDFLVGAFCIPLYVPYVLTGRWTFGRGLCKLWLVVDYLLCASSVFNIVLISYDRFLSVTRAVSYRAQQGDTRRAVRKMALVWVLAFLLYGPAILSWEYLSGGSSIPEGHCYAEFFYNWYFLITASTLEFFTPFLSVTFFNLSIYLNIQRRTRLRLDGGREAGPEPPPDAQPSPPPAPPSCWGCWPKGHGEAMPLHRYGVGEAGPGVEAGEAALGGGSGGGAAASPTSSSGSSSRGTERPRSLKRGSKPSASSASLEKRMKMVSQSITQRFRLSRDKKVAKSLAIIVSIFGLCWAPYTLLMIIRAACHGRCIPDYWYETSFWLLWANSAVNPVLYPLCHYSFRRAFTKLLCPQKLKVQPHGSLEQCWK
Description: (§1) Vectors expressing each BG2 receptor were prepared using pEF1x (Biochemical and Biophysical Research Communications, 1998, 250:68-71). Each BG2 expression vector was introduced into COS7 cells by lipofection method. Genes were introduced using Lipofectamine PLUS reagent (GIBCO-BRL) according to the attached manual.
(§2) The cells were cultured at 37° C. for 24 hours in Dulbecco MEM medium (Asahi Techno Glass) to which fetal calf serum (Sigma) was added at a final concentration of 10%, in an incubator in which CO2 concentration was adjusted to 5%. Then, the cells were used for preparing a membrane fraction for the histamine binding experiment.
(§3) The cells into which each BG2 receptor-expressing vector was introduced were crushed in 50 mM Tris-HCl pH 7.4 solution according to the standard method, uncrushed cells were removed by centrifuging at 1,000 g for 10 min, and supernatant was centrifuged at 100,000 g for 10 min to obtain a membrane fraction. The membrane fraction was resuspended in the 50 mM Tris-HCl pH 7.4 solution and centrifuged twice at 100,000 g for 10 min to finally obtain the membrane fraction. The membrane fraction obtained in this manner was suspended in 50 mM Tris-HCl pH 7.4 solution and used for the binding experiment.
(§4) By using N-α-methylhistamine, a histamine analogue agonist, the binding experiment was conducted and the binding constants were determined (Table 2). […]

rat BG2 [2] = biological target: T2, rat BG2 (Rattus norvegicus, UniProt Q9QYN8); test: N-α-methylhistamine binding experiment on membrane fraction of COS7 cells expressing rat BG2; set-up: succeeded in isolating a full-length cDNA (rat BG2 cDNA) encoding a rat G protein-coupled receptor; expressed in transfected cells; host or cells: COS7 cells (membrane fraction)
T2 sequence (Q9QYN8 1-413 isoform Q9QYN8-2): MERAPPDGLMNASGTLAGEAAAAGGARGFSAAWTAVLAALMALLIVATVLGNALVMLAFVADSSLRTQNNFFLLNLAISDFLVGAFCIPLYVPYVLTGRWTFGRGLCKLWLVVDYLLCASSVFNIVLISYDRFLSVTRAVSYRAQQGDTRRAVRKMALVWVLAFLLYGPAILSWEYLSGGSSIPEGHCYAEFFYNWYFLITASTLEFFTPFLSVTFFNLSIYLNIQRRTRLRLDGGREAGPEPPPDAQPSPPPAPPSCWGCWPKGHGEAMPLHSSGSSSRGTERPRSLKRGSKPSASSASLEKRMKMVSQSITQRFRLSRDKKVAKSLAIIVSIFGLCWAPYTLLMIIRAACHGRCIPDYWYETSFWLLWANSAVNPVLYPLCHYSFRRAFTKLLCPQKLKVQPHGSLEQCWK
Description: as §1, §2, §3, §4

human BG2 [3] = biological target: T3, human BG2 (Homo sapiens, UniProt Q9Y5N1); test: N-α-methylhistamine binding experiment on membrane fraction of COS7 cells expressing human BG2; set-up: the G protein-coupled receptor protein encoded by the isolated human BG2 cDNA, the present inventors prepared cells expressing the protein; expressed in transfected cells
T3 sequence (Q9Y5N1 1-453 isoform Q9Y5N1-2): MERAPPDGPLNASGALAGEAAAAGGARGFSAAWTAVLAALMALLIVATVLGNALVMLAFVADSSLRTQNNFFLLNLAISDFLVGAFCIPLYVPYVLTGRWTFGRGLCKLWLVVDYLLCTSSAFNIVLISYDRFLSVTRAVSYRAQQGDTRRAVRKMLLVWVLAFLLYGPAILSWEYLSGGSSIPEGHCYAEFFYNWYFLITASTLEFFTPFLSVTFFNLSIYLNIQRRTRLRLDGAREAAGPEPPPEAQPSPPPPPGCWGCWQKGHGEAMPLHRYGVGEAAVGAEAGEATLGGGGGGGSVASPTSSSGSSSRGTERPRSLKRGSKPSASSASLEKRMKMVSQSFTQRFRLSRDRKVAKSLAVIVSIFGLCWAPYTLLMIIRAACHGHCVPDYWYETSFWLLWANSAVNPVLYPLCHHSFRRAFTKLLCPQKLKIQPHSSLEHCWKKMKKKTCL
Description: as §1, §2, §3, §4

human BG2 [4] = biological target: T3, human BG2; test: Intracellular cAMP measurement by CRE-β-lactamase reporter (method of Zlokarmik et al.) in human BG2-expressing HEK 293 cells with forskolin; format: cell-based; set-up: the G protein-coupled receptor protein encoded by the isolated human BG2 cDNA, the present inventors prepared cells expressing the protein; expressed in transfected cells; host or cells: HEK 293 cells carrying a CRE-beta-lactamase reporter (Aurora), hygromycin-selected; details: drug 1 μg/ml, forskolin 0.5 μM
Description: This human BG2 expression vector was introduced by lipofection method into HEK 293 cells in which β-lactamase gene was ligated downstream of CRE sequence (purchased from Aurora). For introducing the gene, Lipofectamine PLUS reagent (GIBCO-BRL) was used and the experimental manipulation was performed according to the attached manual.
Human BG2-expressing cells were selected by placing cells in a medium containing hygromycin, and cells which grew in the medium were used for a functional assay as human BG2-expressing cells.

rat BG2-2 [5] = biological target: T1, rat BG2-2; details: 10 μM forskolin; various histamine concentrations; 15 min; rat BG2-2-expressing cells
Description: (§5) HEK293-CRE-BLA cells (Aurora) were cultured using the D-MEM/F-12 (1:1) mixed medium (GIBCO BRL) containing 10% fetal calf serum and 500 μg/ml G418 at 37° C. in the presence of 5% CO2. Effectene Transfection Reagent (QIAGEN) was used for gene introduction.
(§6) A day prior to the gene introduction, cells were spread on a 6-well plate (NUNC) at 3×10^5 cells/well and 0.4 μg each of the rat BG-2 and BG2-2 expression vectors was introduced into them using 10 μl/well Effectene Transfection Reagent according to the attached manual. The cells were cultured at 37° C. in the presence of 5% CO2 for 48 hours.
(§7) To isolate single cells into which the target gene was introduced, the cells were detached from a Petri dish by trypsin, and spread to a 96-well plate (NUNC) at 2000 to 250 cells/well. The cells were further cultured in selection medium containing hygromycin at 37° C. in the presence of 5% CO2 for 14 days. Wells containing cells consisting of a single colony were only selected and cells were passage-cultured to prepare a stable cell line. […] As a control, rat BG2-expressing cells were prepared in the same manner.

rat BG2 [6] = biological target: T2, rat BG2; details: 10 μM forskolin; various histamine concentrations; 15 min; rat BG2-expressing cells
Description: as §5, §6, §7

[7] = system: control cells expressing nothing
Description: The intracellular cAMP concentration was measured by the method of Zlokarmik et al. (Science, 1998, 279:84). In the method of Zlokarmik et al., intracellular cAMP concentration was measured by introducing the gene in which β-lactamase gene was ligated downstream of the sequence that increased transcription activity of a gene downstream thereof dependently on the increase of intracellular cAMP concentration (CRE: cAMP responsible element), and by measuring fluorescence changes in florescent substrates to which an activity of β-lactamase transcribed and translated by the change of cAMP concentration in the cells was added.
Moreover, to measure the decrease of intracellular cAMP concentration mediated by the bound G protein in seven-transmembrane receptors, an activity of β-lactamase depending on the intracellular cAMP concentration was increased by adding forskolin and the decrease of cAMP in cells was measured with the decrease of β-lactamase activity when a ligand was reacted.
The cells in which the above reporter gene and human BG2 were expressed were washed with PBS(−) buffer (GIBCO-BRL) twice, Cell-dissociation buffer (GIBCO-BRL) was added thereto, and the cells were warmed at 37° C. in a CO2 incubator for 3 min and dissociated from a flask by gently tapping the incubation flask. […]

## CNCCc1c[nH]cn1.Cl.Cl [N-α-methylhistamine, Histamine, N-alpha-methyl-dihydrochloride]
Rat BG2-2 [1]; Rat BG2-2, COS7 membrane fraction, 30° C., 40 min, read-out: Binding Constant
  Kd: 582 ± 26.1 pM
Rat BG2-2 [1]; rat BG2-2, nonspecific with 2 μM N-α-methylhistamine
  specific binding (in words): specifically bound
Rat BG2 [2]; Rat BG2, COS7 membrane fraction, 30° C., 40 min, read-out: Binding Constant
  Kd: 503 ± 19.8 pM
Rat BG2 [2]; rat BG2, nonspecific with 2 μM N-α-methylhistamine
  specific binding (in words): specifically bound
Human BG2 [3]; Human BG2, COS7 membrane fraction, 30° C., 40 min, read-out: Binding Constant
  Kd: 548 ± 75.1 pM
Human BG2 [3]; human BG2, nonspecific with 2 μM N-α-methylhistamine
  specific binding (in words): specifically bound

## C[N+](C)(C)CCOC(N)=O [carbachol]
Human BG2 [4]
  reduction of intracellular cAMP concentration (in words): did not reduce intracellular cAMP concentration

## NCCc1ccc(O)c(O)c1 [dopamine]
Human BG2 [4]
  reduction of intracellular cAMP concentration (in words): did not reduce intracellular cAMP concentration

## Cl.Cl.NCCc1c[nH]cn1 [histamine, Histamine dihydrochloride]
Rat BG2-2 [5]
  decrease of intracellular cAMP concentration (in words): decrease of intracellular cAMP concentration, dependent on histamine concentration, was confirmed
Rat BG2 [6]
  decrease of intracellular cAMP concentration (in words): decrease of intracellular cAMP concentration, dependent on histamine concentration, was confirmed
[7]
  reduction of intracellular cAMP concentration (in words): not observed
Human BG2 [4]
  reduction of intracellular cAMP concentration (in words): intracellular cAMP concentration was decreased
Human BG2 [4]; control = 100, absence of forskolin = 0
  ratio of EM460/EM530 relative to the control: 35%

## NCCc1c[nH]c2ccc(O)cc12 [serotonine]
Human BG2 [4]
  reduction of intracellular cAMP concentration (in words): did not reduce intracellular cAMP concentration
